Test results: patent US20180298344A1, “Realistic Humanized Model of Disease Matrix Environment for Evaluation of Therapeutic Reversal or Cell Fate” (Yale University, priority 2017, published 2018)

Experiments:
fibrosis in mouse models = details: in vivo mouse models; cited from earlier work
[1] = system: human microvascular pericytes (PC); experiment: PC on high stiffness polyacrylamide hydrogels treated with CCG-1423; α-SMA by flow cytometry, F-Actin staining; type: cell-based; details: for detectable quantities of α-SMA: high-stiffness hydrogels, versus naive PC; for detectable quantities of α-SMA / decrease in expression of α-SMA: flow cytometry; for decrease in expression of α-SMA: 1.0 nM
Protocol: (§1) Human microvascular PC were isolated from a readily available and nearly inexhaustible source, human placental tissue, by microvascular segment explant outgrowth (Sava et al., Microcirculation, 2015, 22:54-67; Ayres-Sander et al., PLoS One, 2013, 8:e60025; Lauridsen et al., FASEB, 2014, 28:1166-1180; Maier et al., Microcirculation, 2010, 17:367-380). Human placental tissue was segmented, digested with collagenase, and the resulting cells were cultured in M199 (Gibco, Grand Island, NY, USA) medium supplemented with 20% FBS (Hyclone Laboratories, Logan, Utah, USA), and 1% penicillin-streptomycin (Gibco). Isolated pericytes were screened by flow cytometry against NG2 (H-300, Santa Cruz Biotechnology), CD90 (K-15, Santa Cruz), CD146 (P1H12, Biolegend, San Diego, Calif., USA), PDGFR-β (18A2, Santa Cruz), α-SMA (1A4, Santa Cruz), SMMHC (N-16, Santa Cruz), CD31 (C20, Santa Cruz), CD34 (581, Sigma) and CD45 (MEM-28, Sigma). As negative control, PC were incubated with isotype matched IgG. Samples were run on a Stratedigm S1000EXi Flow Cytometer (Stratedigm, San Jose, Calif. USA) and analyzed with FlowJo software (Tree Star, Ashland, Oreg., USA).
(§2) Polyacrylamide hydrogels were prepared as previously described (Tse and Engler, Current protocols in cell biology, editorial board, Juan S. Bonifacino et al, 2010, Chapter 10, Unit 10-16). Briefly, amino-silanated coverslips were prepared by treatment with 0.1M NaOH, followed by 3-aminopropyltriethoxysilane (Sigma), and crosslinked with glutaraldehyde. Chloro-silanated coverslips were treated with dichlorodimethylsilane (Sigma). Polyacrylamide solutions of varying stiffness were prepared by altering the concentrations of acrylamide (Bio-Rad, Hercules, Calif., USA) and bis-acrylamide (Bio-Rad). Ammonium persulfate (Sigma) and tetramethylethylenediamine (Bio-Rad) were used as cross-linkers. The solution was placed between the chloro-silanated and amino-silanated coverslips and cross-linked under ambient lighting for 30 minutes, after which the amino-silanated slide, containing the hydrogel, was hydrated in PBS. The ECM components were chemically conjugated to the polyacrylamide hydrogel using the naturally occurring amine residues on the proteins. Sulfa-SANPAH (Thermo Fisher, Grand Island, N.Y., USA) was added in 50 mM 4-(2-hydroxyethyl)-1-piperazineethanesulfonic acid buffer (Sigma) and the hydrogels were placed under UV light (365 nm, 10 mW/cm^2) for 15 minutes, and incubated overnight with either 0.5 mg/mL solubilized healthy or IPF human lung ECM, or isolated ECM proteins (0.1 mg/mL human plasma fibronectin (Millipore, Billerica, Mass., USA) and 0.1 mg/mL collagen I (Sigma). Validation of protein conjugation was performed by tagging ECM with NHS-Fluorescein (5/6-carboxyfluorescein succinimidyl ester), dialyzing overnight, and rinsed extensively (Syed et al., J Vis, Exp, 2015, 97).
(§3) For short term (7 day) differentiation studies, PC (passage 3-7) were seeded on healthy or IPF lung tissue slices, polyacrylamide hydrogels, or 25 mm glass coverslips (VWR) at 100×10^3 cells per sample and activated with control media (non-activated), or 1 ng/mL TGF-β1 (PeproTech, Rocky Hill, N.J., USA) for 7 days (18, 19). For bleomycin activation, the cells were activated with 1 μg/mL bleomycin sulfate (Cayman Chemical, Ann Arbor, Mich.) for 1 day and the media was replaced with non-activated media for the remaining 6 days (Sava et al., Microcirculation, 2015, 22:54-67; Sterling et al., J Bio Chem, 1983, 258:14438-14444). […]

[2] = system: idiopathic pulmonary fibrosis patients; details: IPF patients; cited from earlier work
[3] = system: human microvascular pericytes (PC); experiment: Short term (7 day) myofibroblast differentiation of PC on low, medium, high stiffness hydrogels with TGF-β1 or bleomycin activation; type: cell-based; details: 7 days
Protocol: as §1, §2
as §3, with “258:14438-14444). TGF-β1 and bleomycin concentrations were based on reports consistent with activation of fibroblasts (Sava et al., Microcirculation, 2015, 22:54-67; Maroni and Davis, Bio Reprod, 2012, 87:127). Treatment with CCG-1423 (Sigma) was performed at day 0 for the full 7 days, and labeled as early treatment, or at day 7 and performed for 7 days, and labeled as late treatment.” for “258:14438-14444).”

[4] = low, medium, high stiffness hydrogels with fibronectin and collagen I, TGF-β1 1 ng/mL 7 days or bleomycin 1 μg/mL 1 day, flow cytometry

For `CC(ONC(=O)c1cc(C(F)(F)F)cc(C(F)(F)F)c1)C(=O)Nc1ccc(Cl)cc1` (stereo not shown) [CCG-1423], the prevention of fibrosis (fibrosis in mouse models) is listed as “effective in preventing fibrosis”, the “detectable quantities of α-SMA” value ([1]; CCG-1423 treatment at day 0 of PC culture, P<0.001) is listed as “significantly reduced” and the “detectable quantities of α-SMA” value ([1]; CCG-1423 treatment at day 7 of PC culture, P=0.039) is listed as “significantly reduced”. For the same molecule, the “cell F-Actin architecture” value ([1]; F-Actin staining, high stiffness hydrogel) was “did not alter”, the “decrease in expression of α-SMA” value ([1]; early time-point (day 0) treatment for 7 days, high stiffness hydrogel) was 38.2±4.2% and the “decrease in expression of α-SMA” value ([1]; late time point (day 7) treatment for additional 7 days, high stiffness hydrogel) was 20.4±8.0%.

In the case of `Cc1ccc(=O)n(-c2ccccc2)c1` [pirfenidone], the “decline in forced vital capacity” value [2] is given as “reducing the decline in forced vital capacity”.

In the case of bleomycin sulfate, the “vimentin expression compared to non-activated PC on substrates of the same stiffness” value [3, 4] is reported as “significantly increased”, the “α-SMA expression compared to non-activated PC on substrates of the same stiffness” value [3, 4] is reported as “significantly increased” and the “cell area and elongation (aspect ratio)” value ([3]; medium and high stiffness substrates) is reported as “largest area and elongation”.
